# Marks after values point to notes of the source that are not given here.
# Tests used:
# [1] = molecular target: T1, 11β-HSD1 (Homo sapiens, UniProt P28845); assay: Human keratinocytes assay: 11β-HSD1 activity (cortisone to cortisol); type: cell-based; settings: 48 h
# Experimental: Cell Culture: Primary human skin keratinocytes obtained from CelINTec advanced Cell Systems were maintained in CnT-PR medium at 37° C. in a humidified 5% CO2-air atmosphere. Cells were subcultured before reaching confluence.
# Assessment of 11β-HSD1 activity: Human primary keratinocytes were pre-cultured in complete culture media (CnT-PR, CelINTec) to 90% of confluence. Subsequently cells were washed twice with PBS-buffer to remove remaining corticosteroids and media were exchanged to custom made hydrocortisone-free media.
# Calculation: % remaining 11β-HSD1 activity=(cortisol-level with inhibitor/cortisol-level without inhibitor)*100%
# [2] = Solubility in cosmetic oils from saturated mixtures (UPLC); type: physicochemical; settings: 7 days at room temperature (22° C.); for Solubility in cosmetic oils: Cetiol B: Cetiol B (dibutyl adipate); for Solubility in cosmetic oils: DUB DIS: DUB DIS (diisopropyl sebacate); for Solubility in cosmetic oils: Finsolv EB: Finsolv EB (ethylhexyl benzoate)
# Experimental: H2O+0.02% TFA (A phase) and MeCN+0.02% TFA (B phase) were used as eluents, with a flow of 0.5 mL/min.
# The solubility of selected compounds was tested in the cosmetic oils Cetiol B (INCI name: dibutyl adipate from BASF Personal Care), DUB DIS (INCI name: diisopropyl sebacate from Stearinerie Dubois) and Finsolv EB ((INCI name: ethylhexyl benzoate from Innospec Performance Chemicals).
# Samples of about 1 mg of the compounds to be tested were exactly weighted and dissolved in 90% MeCN(aq) to provide 0.1% (1000 ppm) w/v stock solutions. Aliquots of the stock solutions were diluted with 90% MeCN(aq) to provide 10, 100 and 250 ppm diluted solutions, which were tested by UPLC.
# For each compound to be tested about 20 mg material were weighted in three microcentrifuge tubes and to each tube about 150 mg of one cosmetic oil were added, as reported in Table 5 below.
# After mixing on a Vortex mixer for 5 min, the respective samples were mixed on a waving platform shaker (20 cycles/min) for 7 days at room temperature (22° C.). After that time, the tubes were centrifuged for 5 min at 12000 rpm, 10 μL samples of the supernatant were diluted to 1.00 mL with MeOH, 100 μL of these solutions were diluted to 1.00 mL with 90% MeCN(aq) and subsequently analyzed by UPLC. The compound concentration in each solution was calculated using the respective calibration curve. From the compound concentration in the diluted solutions the concentrations of the respective parent mixtures was calculated accordingly.
# [3] = tested on: Human skin from abdominal plastic surgery; assay: Ex vivo: total dermal collagen III after UV-irradiation; type: cell-based; settings: for Increase versus UV treatment (#2): day 6; for Dermal collagen III: daily UV 6 J/cm^2, day 6, non UV treated set to 100%
# Experimental: Human skin from abdominal plastic surgery classified as “Intermediate” (ITA° angle=42°) was used. The skin samples were cut in pieces of approx. 8×3 mm (0×thickness) and cultured up to day 6 in an air-liquid interface in a perforated ring of stainless steel in contact with a culture medium (modified Williams' E medium, while renewing the culture medium on day 3. Six skin specimens were used for each test sample. Each test sample (4 μl) was topically applied on top of each piece after gentle cleaning of the surface with a cotton pad, which was subsequently covered with a 6 ø mm delivery membrane, this procedure was repeated daily. The samples were irradiated daily with 80% of the Biological effective dose for daylight (i.e. 6 J/cm^2) using an adopted BIO-SUN system (Vilber Lourmat). At day 6 twelve skin sections were immunostained with mouse monoclonal anti-collagen III antibody (Sigma cat #c7805). The papillary dermis was selected for the analysis. The evaluation was performed by estimating both color intensity and distribution with IMAGE J (NIH) analysis software. Two slides of each skin sample have been processed by image acquisition and related analysis (i.e. 12 images for each treatment).
# [4] = tested on: Human skin from abdominal plastic surgery; assay: Ex vivo: total dermal collagen after cortisone and cortisone/inhibitor treatment; type: cell-based; settings: day 6; for Dermal collagen: untreated set to 100%
# Experimental: Human skin from abdominal plastic surgery was used. The skin samples were cut in pieces of ˜8×3 mm (ø×thickness) and cultured up to day 6 in an air-liquid interface in a perforated ring of stainless steel in contact with a culture medium (modified Williams' E medium), while renewing the culture medium on day 3. Six skin specimens were used for each test sample. Each test sample (4 μl) was applied topically on top of each piece after cleaning of the surface with a cotton pad, which was subsequently covered with a 6 ø mm delivery membrane, this procedure was repeated daily. After 6 days skin sections were stained with Picrosirius Red histochemical staining, that dyes collagen fibers in purple-red. The papillary dermis was selected for the analysis. The different colors of the pictures were separated by using a deconvolution matrix. After deconvolution only pink-reddish images are used. Within these images the evaluation of dermal collagen was performed by estimating both color intensity and distribution with IMAGE J (NIH) analysis software. Two slides of each skin sample were processed by image acquisition and related analysis (i.e. 12 images for each treatment).
# [5] = molecular target: T1, 11β-HSD1; assay: 11β-HSD1 enzyme activity assay in cell lysates of transfected HEK-293 cells (HHH7 clone); type: biochemical; design: expressed in transfected cells; host or cells: HEK-293 (HHH7 clone), used as cell lysate; settings: 200 nM cortisone, 450 μM NADPH, 10 min
# Experimental: Stably transfected human embryonic kidney (HEK-293) cells expressing 11β-HSD1 and hexose-6-phosphate dehydrogenase (the so called HHH7 clone) were cultivated for 48 h in Dulbecco's modified Eagle medium (DMEM) containing 4.5 g/L glucose, 10% fetal bovine serum, 100 U/mL penicillin, 0.1 mg/mL streptomycin, 1×MEM nonessential amino acids, and 10 mM HEPES buffer, pH 7.4. The cells were then washed with phosphate-buffered saline, and centrifuged for 4 min at 150×g. After removal of the supernatants, cell pellets were snap frozen on dry ice and stored at −80° C. until further use.
# Cell lysates were incubated for 10 min at 37° C. in TS2 buffer (100 mM NaCl, 1 mM EGTA, 1 mM EDTA, 1 mM MgCl2, 250 mM sucrose, 20 mM Tris-HCl, pH 7.4) in a final volume of 22.2 μL containing either solvent (0.1% DMSO) or the inhibitor at the respective concentration as indicated in Table 4 (see below).
# The steroids were separated by TLC, using methanol-chloroform (1:9) as solvent, followed by scintillation counting and calculation of substrate concentration. Data were collected from four independent measurements (standard deviation<10%).
# [6] = 10 μM in DMSO, cortisone/inhibitor treatment, topical daily
# [7] = 100 μM in DMSO, cortisone/inhibitor treatment, topical daily
# [8] = 200 μM in DMSO, cortisone/inhibitor treatment, topical daily
# T1 sequence (P28845 whole entry): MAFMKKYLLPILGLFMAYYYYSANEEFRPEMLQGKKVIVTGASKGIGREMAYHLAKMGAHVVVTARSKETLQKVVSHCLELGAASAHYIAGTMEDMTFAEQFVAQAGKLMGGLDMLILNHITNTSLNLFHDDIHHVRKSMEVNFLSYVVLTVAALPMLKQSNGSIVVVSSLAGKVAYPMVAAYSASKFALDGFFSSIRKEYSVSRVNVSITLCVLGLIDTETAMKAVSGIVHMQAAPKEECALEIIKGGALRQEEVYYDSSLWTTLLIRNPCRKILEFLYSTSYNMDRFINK
Compound,remaining activity at 0.001 µM [1] [%],remaining activity at 0.00316 µM [1] [%],remaining activity at 0.01 µM [1] [%],remaining activity at 0.03162 µM [1] [%],remaining activity at 0.1 µM [1] [%],Solubility in cosmetic oils: Cetiol B [2],Solubility in cosmetic oils: DUB DIS [2],Solubility in cosmetic oils: Finsolv EB [2],further results
"Cc1ccc(-c2cccc(C(=O)N3CCOC(C)(C)C3)c2)cc1F [III-a, (2,2-dimethylmorpholino) (3′-fluoro-4′-methyl-[1,1′-biphenyl]-3-yl)methanone]",55,37,11,3,0,–,–,–,remaining activity at 0.00032 µM [1]: 70%
"O=C(c1cccc(-c2ccccc2)c1)N1CCCCCC1 [IV-f, [1,1′-biphenyl]-3-yl(azepan-1-yl)methanone]",83,73,52,28,10,≥ 10.6%^b,≥ 10.2%^b,≥ 10.3%^b,"Increase versus UV treatment (#2) ([3]; 10 μM in DMSO): +6%; Dermal collagen III ([3]; 10 μM in DMSO): 85%; Increase versus UV treatment (#2) ([3]; 100 μM in DMSO): +33%; Dermal collagen III ([3]; 100 μM in DMSO): 106%; Dermal collagen [4, 6]: 103%; Increase versus cortisone (#2) ([4]; 10 μM in DMSO): +34%; Dermal collagen [4, 7]: 103%; Increase versus cortisone (#2) ([4]; 100 μM in DMSO): +34%; Dermal collagen [4, 8]: 93%; Increase versus cortisone (#2) ([4]; 200 μM in DMSO): +21%"
"Cc1ccc(-c2cccc(C(=O)N3CCCCCC3)c2)cc1 [IV-c, azepan-1-yl(4′-methyl-[1,1′-biphenyl]-3-yl)methanone]",70,42,23,9,3,3.3%,2.6%,4.0%,–
"Cc1ccc(-c2cccc(C(=O)N3CC(C)OC(C)C3)c2)cc1 (centres unmarked) [III-c, (2,6-dimethylmorpholino) (4′-methyl-[1,1′-biphenyl]-3-yl)methanone]",–,–,–,–,–,–,–,–,11β-HSD1 Remaining activity [% of control] ([5]; inhibitor 100 nM): 60 % of control; 11β-HSD1 Remaining activity [% of control] ([5]; inhibitor 1 μM): 3 % of control
"Cc1ccc(-c2cccc(C(=O)N3CCC(C)CC3)c2)cn1 [II-a, (4-methylpiperidin-1-yl)(3-(6-methylpyridin-3-yl)phenyl)methanone]",–,–,–,–,–,≥ 13.2%^b,≥ 10.6%^b,≥ 10.2%^b,"Increase versus UV treatment (#2) ([3]; 10 μM in DMSO): +5%; Dermal collagen III ([3]; 10 μM in DMSO): 84%; Increase versus UV treatment (#2) ([3]; 100 μM in DMSO): +43%; Dermal collagen III ([3]; 100 μM in DMSO): 114%; Dermal collagen [4, 6]: 94%; Increase versus cortisone (#2) ([4]; 10 μM in DMSO): +22%; Dermal collagen [4, 7]: 108%; Increase versus cortisone (#2) ([4]; 100 μM in DMSO): +40%; Dermal collagen [4, 8]: 114%; Increase versus cortisone (#2) ([4]; 200 μM in DMSO): +48%"
"Cc1ccc(-c2cccc(C(=O)N3CCCC(C)(C)C3)c2)cc1F [II-h, (3,3-dimethylpiperidin-1-yl)(3′-fluoro-4′-methyl-[1,1′-biphenyl]-3-yl)methanone]",10,–,–,–,–,–,–,–,remaining activity at 40 pM [1]: 74%; remaining activity at 0.0001 µM [1]: 45%; remaining activity at 0.00032 µM [1]: 24%
"CC1CCN(C(=O)c2cccc(-c3cccc(C(N)=O)c3)c2)CC1 [II-k, 3′-(4-methylpiperidine-1-carbonyl)-[1,1′-biphenyl]-3-carboxamide]",–,–,–,–,–,3.0%,2.4%,3.4%,–
"C[C@]12CCC(=O)C=C1CC[C@@H]1[C@@H]2C(=O)C[C@@]2(C)[C@H]1CC[C@]2(O)C(=O)CO [cortisone, reference compound]",–,–,–,–,–,–,–,–,Dermal collagen ([4]; cortisone alone 0.1 μM in DMSO): 77%
"Cc1ccc(-c2cccc(C(=O)N3CCC(C)CC3)c2)cc1 [II-f, (4′-methyl-[1,1′-biphenyl]-3-yl)(4-methylpiperidin-1-yl)methanone]",–,–,–,–,–,–,–,–,11β-HSD1 Remaining activity [% of control] ([5]; inhibitor 1 μM): 2 % of control
"CC1CCN(C(=O)c2cccc(-c3ccccc3Cl)c2)CC1 [II-e, (2′-chloro-[1,1′-biphenyl]-3-yl)(4-methylpiperidin-1-yl)methanone]",85,70,50,21,4,–,–,–,–
"Cc1ccc(-c2cccc(C(=O)N3CCCCCC3)c2)cc1F [IV-a, azepan-1-yl(3′-fluoro-4′-methyl-[1,1′-biphenyl]-3-yl)methanone]",74,45,22,8,2,–,–,–,"Increase versus UV treatment (#2) ([3]; 10 μM in DMSO): +13%; Dermal collagen III ([3]; 10 μM in DMSO): 90%; Increase versus UV treatment (#2) ([3]; 100 μM in DMSO): +21%; Dermal collagen III ([3]; 100 μM in DMSO): 97%; Dermal collagen [4, 6]: 96%; Increase versus cortisone (#2) ([4]; 10 μM in DMSO): +25%; Dermal collagen [4, 7]: 97%; Increase versus cortisone (#2) ([4]; 100 μM in DMSO): +26%; Dermal collagen [4, 8]: 86%; Increase versus cortisone (#2) ([4]; 200 μM in DMSO): +12%"
"Cc1ccc(-c2cccc(C(=O)N3CCC(C)CC3)c2)cc1F [II-d, (3′-fluoro-4′-methyl-[1,1′-biphenyl]-3-yl)(4-methylpiperidin-1-yl)methanone]",–,–,–,–,–,–,–,–,11β-HSD1 Remaining activity [% of control] ([5]; inhibitor 100 nM): 45 % of control
"Cc1ccc(-c2cccc(C(=O)N3CC(C)OC(C)C3)c2)cc1F (centres unmarked) [III-b, (2,6-dimethylmorpholino) (3′-fluoro-4′-methyl-[1,1′-biphenyl]-3-yl)methanone]",–,–,–,–,–,10.0%,4.3%,2.6%,–

# Source: patent US10550097B2, “Selective 11-beta-hydroxysteroid dehydrogenase type 1 inhibitors” (DSM IP ASSETS B.V., priority 2015, dated 2020)
